In assay [1] the target is dopamine transporter (DAT) (Homo sapiens, UniProt Q01959). Briefly: cell-based.
The target of assay [2] is norepinephrine transporter (NET) (Homo sapiens, UniProt P23975). Put plainly: cell-based. The class given is cell-based.
Assay [3] concerns the target serotonin transporter (SERT) (Homo sapiens, UniProt P31645). Put plainly: cell-based. The format is cell-based.
Another assay deals with DAT (Homo sapiens, UniProt Q01959). Briefly: Radioligand binding assay.
Assay [4] deals with 5-HT2B serotonin receptors (Homo sapiens, UniProt P41595). Put plainly: Radioligand binding assay. The following applies: for Ki: 5-HT2B receptor affinity Ki.
Sequence of 5-HT2B serotonin receptors (P41595 whole entry): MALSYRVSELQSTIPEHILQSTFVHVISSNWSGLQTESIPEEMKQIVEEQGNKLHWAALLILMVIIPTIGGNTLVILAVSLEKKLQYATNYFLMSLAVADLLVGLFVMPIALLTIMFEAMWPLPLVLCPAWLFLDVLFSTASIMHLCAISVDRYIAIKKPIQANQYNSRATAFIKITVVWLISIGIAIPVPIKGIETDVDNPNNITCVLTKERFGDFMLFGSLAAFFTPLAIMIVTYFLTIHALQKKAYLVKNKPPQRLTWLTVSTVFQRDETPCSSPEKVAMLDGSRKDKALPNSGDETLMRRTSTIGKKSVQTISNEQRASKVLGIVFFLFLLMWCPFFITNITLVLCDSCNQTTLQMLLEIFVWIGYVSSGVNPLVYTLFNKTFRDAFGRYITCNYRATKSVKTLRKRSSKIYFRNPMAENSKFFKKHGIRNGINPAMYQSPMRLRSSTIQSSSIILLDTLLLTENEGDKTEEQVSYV
For assay [5], the target named is human cloned 5-HT2B receptor (Homo sapiens, UniProt P41595). Put plainly: 5-HT2B functional assay, intracellular Ca++ mobilization. The class given is cell-based. The note with it: HEK-T cells.
Sequence of human cloned 5-HT2B receptor (P41595 whole entry): as above
The next assay concerns the target T1, α2C adrenoceptors (Homo sapiens, UniProt P18825).
T1 sequence (P18825 1-462): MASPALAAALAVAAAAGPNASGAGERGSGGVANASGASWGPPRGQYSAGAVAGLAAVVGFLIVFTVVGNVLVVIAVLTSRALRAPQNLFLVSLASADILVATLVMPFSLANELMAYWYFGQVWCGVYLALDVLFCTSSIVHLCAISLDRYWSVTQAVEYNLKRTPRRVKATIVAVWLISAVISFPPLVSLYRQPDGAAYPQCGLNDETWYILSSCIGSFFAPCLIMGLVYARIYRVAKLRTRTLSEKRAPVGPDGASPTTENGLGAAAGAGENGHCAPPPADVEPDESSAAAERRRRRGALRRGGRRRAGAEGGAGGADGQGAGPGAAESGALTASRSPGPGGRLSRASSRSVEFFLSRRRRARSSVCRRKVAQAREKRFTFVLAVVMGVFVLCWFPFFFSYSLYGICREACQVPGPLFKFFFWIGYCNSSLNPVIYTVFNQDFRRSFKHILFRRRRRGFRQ
Put plainly: Radioligand binding assay. The note with it: α2C adrenoceptor affinity Ki.

In another assay the target is SERT (Homo sapiens, UniProt P31645). Put plainly: Radioligand binding assay.
Sequence of SERT (P31645 whole entry): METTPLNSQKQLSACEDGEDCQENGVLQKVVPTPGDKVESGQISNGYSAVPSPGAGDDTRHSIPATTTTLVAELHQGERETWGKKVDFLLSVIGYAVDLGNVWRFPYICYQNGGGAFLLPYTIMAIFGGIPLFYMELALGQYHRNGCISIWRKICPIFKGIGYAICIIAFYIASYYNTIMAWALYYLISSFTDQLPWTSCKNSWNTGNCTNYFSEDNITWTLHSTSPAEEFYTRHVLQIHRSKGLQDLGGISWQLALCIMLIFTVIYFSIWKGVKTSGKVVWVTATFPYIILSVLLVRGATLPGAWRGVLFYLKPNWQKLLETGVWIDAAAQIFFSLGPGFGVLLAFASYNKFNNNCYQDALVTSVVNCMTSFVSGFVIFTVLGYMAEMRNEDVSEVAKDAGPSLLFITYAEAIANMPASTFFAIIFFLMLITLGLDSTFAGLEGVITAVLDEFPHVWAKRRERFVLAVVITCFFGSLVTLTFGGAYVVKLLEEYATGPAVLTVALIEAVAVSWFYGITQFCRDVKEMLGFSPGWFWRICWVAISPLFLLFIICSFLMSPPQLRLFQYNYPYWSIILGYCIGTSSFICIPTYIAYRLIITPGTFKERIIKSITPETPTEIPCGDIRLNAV
Assay [6] concerns dopamine uptake in rat brain synaptosomes. The note with it: ref Martinez-Clemente et al (2011); cited from earlier work.
For assay [7], the system named is serotonin uptake in rat brain synaptosomes. The note with it: ref Martinez-Clemente et al (2011); cited from earlier work.
Another assay addresses NET (Homo sapiens, UniProt P23975). Briefly: Radioligand binding assay.
[8] abbreviates: inhibition of transporter uptake activity, N=3.
[9] abbreviates: NET Ki, inhibition of transporter uptake activity.
The mark [10] stands for this setting: NET pKi (mean +/- S.E.M), inhibition of transporter uptake activity, N=3.
Where [11] appears, read: DAT Ki, inhibition of transporter uptake activity.
Where [12] appears, read: DAT pKi (mean +/- S.E.M), inhibition of transporter uptake activity, N=3.
The mark [13] stands for this setting: SERT Ki, inhibition of transporter uptake activity.
[14] abbreviates: SERT pKi (mean +/- S.E.M), inhibition of transporter uptake activity, N=3.
[15] abbreviates: inhibition of transporter uptake activity.

Several values for one entry are separate records, joined by “and”; a condition that tells them apart may be missing. Equal values may be shown once. Where a name gives a salt, the structure may show the parent alone. Read-outs that look alike come from different tables or passages of the source.

Sequence of dopamine transporter (DAT) (Q01959 whole entry): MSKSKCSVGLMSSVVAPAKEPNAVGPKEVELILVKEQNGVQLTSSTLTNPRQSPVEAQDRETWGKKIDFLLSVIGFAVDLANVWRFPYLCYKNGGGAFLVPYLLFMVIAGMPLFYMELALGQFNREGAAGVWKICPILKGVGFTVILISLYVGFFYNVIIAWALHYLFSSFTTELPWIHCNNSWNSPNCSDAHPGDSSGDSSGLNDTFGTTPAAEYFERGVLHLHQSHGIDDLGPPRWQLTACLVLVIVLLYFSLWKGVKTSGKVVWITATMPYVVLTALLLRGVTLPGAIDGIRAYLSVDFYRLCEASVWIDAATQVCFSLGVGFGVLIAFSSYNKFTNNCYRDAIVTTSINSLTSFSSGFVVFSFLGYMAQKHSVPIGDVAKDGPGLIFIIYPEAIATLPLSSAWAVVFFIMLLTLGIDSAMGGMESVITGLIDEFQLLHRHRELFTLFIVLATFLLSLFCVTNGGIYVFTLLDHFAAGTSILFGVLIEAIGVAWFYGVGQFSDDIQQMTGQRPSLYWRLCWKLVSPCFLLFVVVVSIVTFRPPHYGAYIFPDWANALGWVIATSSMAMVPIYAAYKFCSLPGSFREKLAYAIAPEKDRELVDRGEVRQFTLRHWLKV
Sequence of norepinephrine transporter (NET) (P23975 whole entry): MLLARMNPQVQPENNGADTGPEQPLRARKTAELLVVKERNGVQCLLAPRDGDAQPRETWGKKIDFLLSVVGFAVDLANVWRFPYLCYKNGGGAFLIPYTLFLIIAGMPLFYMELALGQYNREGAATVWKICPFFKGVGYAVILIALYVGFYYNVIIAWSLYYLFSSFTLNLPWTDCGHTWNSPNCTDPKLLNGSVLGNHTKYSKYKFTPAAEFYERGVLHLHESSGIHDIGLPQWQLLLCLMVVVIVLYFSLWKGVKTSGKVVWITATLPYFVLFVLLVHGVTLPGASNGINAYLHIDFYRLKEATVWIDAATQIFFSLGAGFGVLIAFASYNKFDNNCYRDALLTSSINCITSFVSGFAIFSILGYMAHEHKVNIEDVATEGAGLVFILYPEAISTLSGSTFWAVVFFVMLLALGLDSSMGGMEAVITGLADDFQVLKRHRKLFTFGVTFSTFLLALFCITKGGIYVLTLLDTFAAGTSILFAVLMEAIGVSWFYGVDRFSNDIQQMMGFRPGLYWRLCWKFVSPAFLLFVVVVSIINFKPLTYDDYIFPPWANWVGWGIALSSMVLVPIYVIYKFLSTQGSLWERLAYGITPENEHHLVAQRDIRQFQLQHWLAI
Sequence of serotonin transporter (SERT) (P31645 whole entry): as the sequence (P31645 whole entry) above
Sequence of DAT (Q01959 whole entry): as the sequence (Q01959 whole entry) above
Sequence of NET (P23975 whole entry): as the sequence (P23975 whole entry) above

Consider `CN(C)CCC=C1c2ccccc2CCc2ccccc21` [Amitriptyline, reference compound], for which the figures for the inhibition constant (Ki) in assay [1] (DAT Ki) and in assay [1] (DAT pKi (mean +/- S.E.M)) were 4.64 µM and 9.77 µM, respectively.

Consider `CNC(C)Cc1cccs1.Cl` (stereo not drawn) [Methiopropamine], for which the “NET pKi (mean +/- S.E.M)” value in [2] (setting [8]) is listed as 6.09±0.07. Further, the “DAT pKi (mean +/- S.E.M)” value in [1] (setting [8]) is reported as 6.05±0.07. For the same molecule, in [3] (setting [8]), the “SERT pKi (mean +/- S.E.M)” value was 4.14±0.07.

For `CN[C@@H](C)Cc1ccc2c(c1)OCO2` [(+)-MDMA, 3,4-methylenedioxymethamphetamine, reference compound], the Ki is 0.398 µM in [2] (NET Ki); 2 µM in [2] (NET pKi (mean +/- S.E.M)); 0.897 µM in assay [1] (DAT Ki); 2.4 µM in assay [1] (DAT pKi (mean +/- S.E.M)); 0.948 µM in assay [3] (SERT Ki); 2.75 µM in assay [3] (SERT pKi (mean +/- S.E.M)).

As to `NC1Cc2cc3c(cc2C1)OCO3` [Methylenedioxy-aminoindane, 6,7-dihydro-5H-cyclopenta[f][1,3]benzodioxol-6-amine], the Ki in [2] (setting [9]) was 0.641 µM; in [2] (setting [10]) it was 1.66 µM; in assay [1] (setting [11]), 4.92 µM; in assay [1] (setting [12]), 7.59 µM; in assay [3] (SERT Ki) it was > 10 µM; in assay [3] (SERT pKi (mean +/- S.E.M)), 11.7 µM.

Consider `CN[C@H](C)Cc1ccc2c(c1)OCO2` [(−)-MDMA, 3,4-methylenedioxymethamphetamine, reference compound], for which the inhibition constant (Ki) in assay [2] (NET Ki) is 0.704 µM; in assay [2] (NET pKi (mean +/- S.E.M)), 3.16 µM; in assay [1] (DAT Ki) it was 2.42 µM; in assay [1] (DAT pKi (mean +/- S.E.M)), 6.17 µM; in [3] (SERT Ki) it was 2.31 µM.

For the molecule `NC1Cc2ccc(I)cc2C1` (stereo not drawn) [5-iod-2-aminoindane, 5-iodo-2,3-dihydro-1H-inden-2-amine hydrochloride], the Ki was 0.311 µM in [2] (setting [9]); 0.813 µM in [2] (setting [10]); 1.59 µM in [1] (setting [11]); 2.45 µM in [1] (setting [12]); 0.879 µM in assay [3] (setting [13]); 1.78 µM in assay [3] (setting [14]).

As to `CC(N)Cc1ccc2occc2c1.Cl` (stereo not drawn) [5-APB, 1-(benzofuran-5-yl)propan-2-amine hydrochloride], the Ki at DAT is < 0.1 µM; in assay [2] (setting [9]) it was 0.18 µM; in assay [2] (setting [10]), 0.468 µM; in assay [4] it was < 0.1 µM and 0.014 µM; in [1] (setting [11]) it was 0.265 µM; in assay [1] (setting [12]) it was 0.501 µM. Besides, the inhibition constant Ki is < 0.1 µM on α2C adrenoceptors, 0.811 µM in assay [3] (setting [13]) and 1.66 µM in assay [3] (setting [14]). The “NET Ki” value in [2] (setting [15]) is listed as “submicromolar”. For the same molecule, in assay [1] (setting [15]), the “DAT Ki” value is “submicromolar”. In addition, the “5-HT2B agonist EC50” value in assay [5] is listed as “nanomolar”. Further, in assay [5], the 5-HT2B agonist activity entry is given as “potent full agonists”. For the same molecule, the “SERT Ki” value in [3] (setting [15]) is “submicromolar”.

On to `CCNC(C)C(=O)c1ccc(C)cc1` (stereo not drawn) [Methylethcathinone, 2-ethylamino-1-(4-methylphenyl)propan-1-one hydrochloride], for which the inhibitory constant (Ki) is 1.67 µM in assay [2] (setting [9]); 4.37 µM in assay [2] (setting [10]); 0.565 µM in assay [1] (setting [11]); 0.832 µM in [1] (setting [12]); 1.8 µM in assay [3] (setting [13]); 3.72 µM in assay [3] (setting [14]).

Take `CCC(C)CC(C)N` (stereo not drawn) [Dimethylamylamine, 4-methylhexan-2-amine hydrochloride]: the inhibitory constant (Ki) in [2] (setting [9]) was 0.649 µM; in [2] (setting [10]) it was 1.7 µM; in [1] (setting [11]), > 10 µM; in [1] (setting [12]), 18.2 µM; in assay [3] (setting [13]) it was > 10 µM; in [3] (setting [14]), 178 µM.

Take `CCCC(C(=O)c1cccc2ccccc12)N1CCCC1.Cl` (stereo not drawn) [1-Naphyrone, 1-naphthalen-1-yl-2-pyrrolidin-1-ylpentan-1-one hydrochloride]: the “NET Ki” value in assay [2] is “submicromolar”. Further, the Ki in assay [2] (setting [9]) is 0.536 µM; at SERT, < 0.1 µM; in assay [1] (DAT Ki), < 0.1 µM; in [1] (setting [11]), 0.048 µM; in assay [1] (setting [12]), 0.0479 µM; in assay [3] (setting [13]) it was 0.352 µM. In addition, the “5-HT2B receptor affinity Ki” value in [4] was “submicromolar”. For the same molecule, in [1], the “DAT Ki” value is listed as “submicromolar”. Also, the “SERT Ki” value in [3] is “submicromolar”.

Consider `CNC(C)Cc1cccs1.Cl` (stereo not drawn) [Methiopropamine, methyl[(1-(2-thienyl)]propan-2-amine hydrochloride], for which the inhibitory constant (Ki) in assay [2] (read-out: NET Ki, inhibition of transporter uptake activity) is 0.313 µM; in assay [1] (read-out: DAT Ki, inhibition of transporter uptake activity), 0.577 µM; in assay [3] (read-out: SERT Ki, inhibition of transporter uptake activity) it was > 10 µM.

Consider `Cl.NC1CCc2cc3c(cc2C1)OCO3` (stereo not drawn) [Methylenedioxy-aminotetralin, 5,6,7,8-tetrahydrobenzo[f][1,3]benzodioxol-6-amine hydrochloride], for which the Ki in assay [2] (setting [9]) was 0.894 µM; in assay [2] (setting [10]), 2.29 µM; in assay [1] (setting [11]) it was 4.07 µM; in assay [1] (setting [12]) it was 6.31 µM; in assay [3] (setting [13]), 1.1 µM; in [3] (setting [14]) it was 2.24 µM. For the same molecule, the “5-HT2B receptor affinity Ki” value in [4] is reported as “submicromolar”.

For the molecule `CC(NCc1ccccc1)C(=O)c1ccc2c(c1)OCO2` (stereo not drawn) [Methylenedioxy-N-benzylcathinone, 2-(benzylamino)-1-(3,4-methylenedioxyphenyl)propan-1-one], the inhibition constant Ki was 1.63 µM in [2] (setting [9]); 4.27 µM in assay [2] (setting [10]); 0.637 µM in [1] (setting [11]); 0.977 µM in assay [1] (setting [12]); > 10 µM in [3] (setting [13]); 29.5 µM in assay [3] (setting [14]).

For the molecule `CNC(C)C(=O)c1ccc(C)cc1.Cl` (stereo not drawn) [Mephedrone, 2-methylamino-1-(4-methylphenyl)propan-1-one hydrochloride], the “concentration inhibiting dopamine uptake” value in assay [6] is reported as “submicromolar”. Also, the “concentration inhibiting serotonin uptake” value in assay [7] is listed as “submicromolar”. Besides, the Ki was 0.511 µM in assay [2] (setting [9]); 0.543 µM in [1] (setting [11]); 0.832 µM in [1] (setting [12]); 4.94 µM in assay [3] (setting [13]); 10.2 µM in assay [3] (setting [14]). Besides, in assay [4], the “5-HT2B receptor affinity Ki” value is on record as “submicromolar”.

As to `CC(N)Cc1ccc2ccoc2c1.Cl` (stereo not drawn) [6-APB, 1-(benzofuran-6-yl)propan-2-amine hydrochloride], the Ki in [2] (setting [9]) was 0.117 µM; in [2] (setting [10]), 0.302 µM; in [4] it was 0.0037 µM; in [1] (setting [11]) it was 0.15 µM; in [1] (setting [12]) it was 0.234 µM; on α2C adrenoceptors, 0.045 µM. For the same molecule, the Ki in assay [3] (setting [13]) was 2.7 µM; in assay [3] (setting [14]) it was 5.5 µM. Besides, the “5-HT2B agonist EC50” value in assay [5] was “nanomolar”. The 5-HT2B agonist activity entry in assay [5] is recorded as “potent full agonists”.

In the case of `CCCC(C(=O)c1ccc2ccccc2c1)N1CCCC1.Cl` (stereo not drawn) [Naphyrone, 1-naphthalen-2-yl-2-pyrrolidin-1-ylpentan-1-one hydrochloride], the “NET Ki” value in [2] is given as “submicromolar”. Moreover, the Ki in assay [2] (NET Ki) was 0.2 µM; at SERT it was < 0.1 µM; at NET it was < 0.1 µM; in [1] (DAT Ki), 0.053 µM; in assay [1] (DAT pKi (mean +/- S.E.M)) it was 0.0525 µM; in [3] (SERT Ki), 0.235 µM. Also, the “5-HT2B receptor affinity Ki” value in assay [4] is on record as “submicromolar”. Moreover, the “DAT Ki” value in assay [1] is recorded as “submicromolar”. Further, the “SERT Ki” value in [3] is “submicromolar”.

`c1ccc(C(c2ccccc2)C2CCCCN2)cc1` (stereo not drawn) [Desoxypipradrol, 2-benzhydrylpiperidine hydrochloride]: the Ki was 0.213 µM in assay [2] (setting [9]); 0.55 µM in assay [2] (setting [10]); 0.032 µM in assay [1] (setting [11]); 0.0501 µM in [1] (setting [12]); > 10 µM in assay [3] (setting [13]); 53.7 µM in assay [3] (setting [14]).

Take `Cc1ccc(C(=O)C(C)NCc2ccccc2)cc1` (stereo not drawn) [Benzedrone, 2-(benzylamino)-1-(4-methylphenyl)propan-1-one hydrochloride]: the Ki in assay [2] (setting [9]) was 1.22 µM; in assay [2] (setting [10]), 3.16 µM; in assay [1] (setting [11]) it was 1.41 µM and 1.49 µM; in [1] (setting [12]) it was 2.29 µM; in assay [3] (setting [13]), > 10 µM; in assay [3] (setting [14]) it was 17.8 µM.

The term Ki denotes a dissociation constant, usually derived from enzyme kinetics or from competition with a known ligand.

The values are drawn from paper PMC3582025 (European journal of pharmacology, 2012).
